Results as given in US6855804B2, “Covalently reactive transition state analogs and methods of use thereof” (Board of Regents, The University of Texas System, priority 1998, dated 2005).
Non-standard residues stand in square brackets, D forms with d. Residues, ends and D or L forms follow the SMILES beside them. *: point of attachment. Sta = CC(C)C[C@H](N)[C@@H](O)CC(=O)O; Isovaleryl = CC(C)CC(=O)*

Assays:
[1] = molecular target: trypsin (porcine, type IX) (Sus scrofa, UniProt P00761); experiment: biochemical; type: biochemical
[2] = system: VIPase antibody fragments; type: biochemical
L chain c23.5 [3] = type: biochemical
L chain hk14 [4] = type: biochemical
Fv mRT3 = type: biochemical
L chain U16 [5] = type: biochemical, mouse
L chain c23.5 [6] = type: binding
L chain hk14 [7] = type: binding
L chain U16 [8] = type: binding, mouse
Fv YZ17 [9] = type: biochemical, mouse
L chain GG63 = L chain GG63 (Homo sapiens, UniProt P01834); experiment: Inhibition of L chain GG63 catalysed PFR-MCA cleavage
trypsin = trypsin (Sus scrofa, UniProt P00761); type: binding, porcine
Thrombin (human, a) = Thrombin (human, a) (Homo sapiens, UniProt P00734); type: biochemical
Fv YZ17 [10] = type: binding, mouse
L chain clone SK35 = type: binding
L chain clone c23.5 = type: binding

Sequence of trypsin (porcine, type IX) (P00761 9-231): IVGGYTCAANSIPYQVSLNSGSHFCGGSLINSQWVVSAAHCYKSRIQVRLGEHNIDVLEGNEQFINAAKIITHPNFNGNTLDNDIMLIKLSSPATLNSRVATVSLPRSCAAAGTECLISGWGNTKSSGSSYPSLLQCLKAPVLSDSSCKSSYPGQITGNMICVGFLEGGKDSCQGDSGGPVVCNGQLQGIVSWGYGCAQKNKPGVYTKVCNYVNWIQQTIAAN
Sequence of trypsin (P00761 9-231): as above

Q: Which Ki [1] does the source give for `N=C(N)c1ccc(C(NC(=O)OCc2ccccc2)P(=O)(O)Oc2ccccc2)cc1` (stereo not shown) [Compound 2, Monophenyl N-(benzyloxycarbonyl)amino(4-amidinophenyl)methanephosphonate] here?
A: 5.2 mM

Q: What about the kinact/KI ([1]; read-out: k2/Ki) of the same molecule?
A: 1.5 M⁻¹ s⁻¹

Q: Which “irreversibility of peptidase inhibition after removal of free inhibitor by gel filtration” value [2] does the source give for “phenylphosphonate 4-nitrophenyl [N-(6-biotinylhexanediamin-1-yl)carboxymethyl]tropan-3-ol diester [diester II]” here?
A: did not restore the catalytic activity

Q: And the “inhibition of cleavage of PFR-MCA” value (L chain c23.5 [3])?
A: 83%

Q: And the “inhibition of cleavage of PFR-MCA” value (L chain hk14 [4])?
A: 71%

Q: What about the “inhibition of cleavage of PFR-MCA” value (Fv mRT3) of the same molecule?
A: 92%

Q: What about the “inhibition of cleavage of PFR-MCA” value (L chain U16 [5]) of the same molecule?
A: 79%

Q: And the “II labeling of monomer L chain, % of the Fv level” value (from here on “II labeling … % of the Fv level”) (L chain c23.5 [6])?
A: 18%

Q: What about the “II labeling … % of the Fv level” value (L chain hk14 [7]) of the same molecule?
A: 33%

Q: What about the “II labeling … % of the Fv level” value (L chain U16 [8]) of the same molecule?
A: 51%

Q: Which results are given for `CC(C)CC(=O)N[C@H](C(=O)N[C@H](C(=O)N[C@@H](CC(C)C)[C@@H](O)CC(=O)N[C@@H](C)C(=O)N[C@@H](CC(C)C)[C@@H](O)CC(=O)O)C(C)C)C(C)C` [Pepstatin A, pepstatin A] (Isovaleryl-VV[Sta]A[Sta]-OH)?
A: Inhibition, % Pepstatin A (Fv YZ17 [9]): 1.2 (2.9) %; Inhibition, % Pepstatin A (L chain GG63): 0.2 (1.3) %

Q: Which results are given for `N=C(N)c1ccc(C(NC(=O)OCc2ccccc2)P(=O)(Oc2ccccc2)Oc2ccccc2)cc1` (stereo not shown) [Compound 1, Diphenyl N-(benzyloxycarbonyl)amino(4-amidinophenyl)methanephosphonate, reference compound]?
A: k2, first-order rate constant for formation of covalent adduct [1]: 2.0 min⁻¹; kapp/[I] [1]: 3703 M⁻¹ s⁻¹; ΔG of noncovalent enzyme-inhibitor interactions (ΔG=−RTlnKi) [1]: 7.3 kcal/mol

Q: With `c1cnc2c(c1)ccc1cccnc12` [Phenanthroline, phenanthroline] as the molecule, how does the “Inhibition, % Phenanthroline” value (Fv YZ17 [9]) read?
A: 0.2%

Q: What about the inhibition at 10000 µM (L chain GG63; read-out: Inhibition, % Phenanthroline) of the same molecule?
A: 0.6%

Q: For `N=C(N)c1ccc(C(NC(=O)CCSSCCC(=O)NCCNC(=O)CCCCC2SCC3NC(=O)NC32)P(=O)(O)Oc2ccccc2)cc1` (stereo not shown) [Compound 3, Monophenyl-N-[2-(biotinamido)ethylamido-3,3′-dithiodipropionyl]amino(4-amidinophenyl)methanephosphonate], which “inhibition of trypsin activity after pretreatment and dilution” value [1] is on record?
A: 85%

Q: And the “inhibition of trypsin without pretreatment” value [1]?
A: no inhibition

Q: What about the “inhibition of trypsin-catalyzed EAR-MCA hydrolysis” value [1] of the same molecule?
A: 9.9-80%

Q: What about the “irreversibility of trypsin inhibition” value [1] of the same molecule?
A: irreversible

Q: And the “k3, first-order rate constant for decomposition of Ei-I” value [1]?
A: ~0

Q: What about the “trypsin activity level following gel filtration” value [1] of the same molecule?
A: 27.6±2.6 FU/h

Q: And the “trypsin activity level without removal of phosphonate” value [1]?
A: 33.2±2.6 FU/h

Q: And the “trypsin activity of adduct isolated by gel filtration after incubation in buffer” value [1]?
A: 50.2±7.0 FU/h

Q: And the “covalent labeling of trypsin (adducts after denaturing treatment)” value (trypsin)?
A: labeled

Q: What about the “irreversible inhibition of thrombin activity” value (Thrombin (human, a)) of the same molecule?
A: inhibition of activity despite dilution

Q: And the “irreversible inhibition of YZ17 activity” value (Fv YZ17 [9])?
A: inhibition of activity despite dilution

Q: How did the “stable adduct formation with Fv YZ17” value (Fv YZ17 [10]) turn out when `N=C(N)c1ccc(C(NC(=O)CCCCCNC(=O)CCCC[C@@H]2SC[C@@H]3NC(=O)N[C@@H]32)P(=O)(O)Oc2ccccc2)cc1` (stereo partly shown) [Compound 4, Monophenyl N-[6-(biotinamido)hexanoyl]amino(4-amidinophenyl)methanephosphonate] was run?
A: adducts stable to denaturing treatments were observed

Q: What about the “stable adduct formation with L chain SK35” value (L chain clone SK35) of the same molecule?
A: adducts stable to denaturing treatments were observed

Q: And the “stable adduct formation with L chain c23.5” value (L chain clone c23.5)?
A: failed to form stable 4-adduct

Q: Which results are given for `NC(=O)CI` [Iodoacetamide, iodoacetamide]?
A: Inhibition, % Iodoacetamide (Fv YZ17 [9]): 4.4%; Inhibition, % Iodoacetamide (L chain GG63): 5.8%

Q: How did the “kapp/[I]” value [1] turn out when `N=C(N)c1ccc(C(NC(=O)CCSSCCC(=O)NCCNC(=O)CCCCC2SCC3NC(=O)NC32)P(=O)(Oc2ccccc2)Oc2ccccc2)cc1` (stereo not shown) [Compound 5, Diphenyl-N-[2-(biotinamido)ethylamido-3,3′-dithiodipropionyl]amino(4-amidinophenyl)methanephosphonate] was run?
A: 0.23 M⁻¹ s⁻¹

Q: What about the “trypsin activity level following gel filtration” value [1] of the same molecule?
A: 5.0±0.1 FU/h

Q: And the “trypsin activity level without removal of phosphonate” value [1]?
A: 6.5±0.2 FU/h

Q: And the “covalent labeling of trypsin (adducts after denaturing treatment)” value (trypsin)?
A: labeled
